Publication PMC10442743 (Dalton Transactions (Cambridge, England : 2003), 2023)
Like-named read-outs stand apart in the source and are kept apart here.

Experiments:
[1] = system: MDA-MB-231; experiment: MTT cytotoxicity assay, MDA-MB-231 cells; assay type: cell-based, human; conditions: MTT
Experimental: The cytotoxicity of 1–11CA was assessed against human breast cancer MCF-7 and MDA-MB-231 cells, and non-tumorigenic adherent mouse fibroblast connective tissue L929 cells using the MTT assay after 24 and 72 h (Tables S5 ^† and Table 1, respectively).
Then, necessary dilutions were made using the supplement DMEM, to prepare the range of tested concentrations. Since DMSO was used to solubilize the compounds, a supplemented DMEM + DMSO (at the same percentage as in the sequential dilutions) was considered as a control in the 3-[4,5-dimetylthiazole-2-yl]-2,5-diphenyltetrazolium bromide (MTT) assay.
L929, MCF-7, and MDA-MB-231 cell lines were cultured in DMEM supplemented with 10% (v/v) FBS and 1% (v/v) of penicillin–streptomycin. The cells were incubated in a humidified chamber at 37 °C under saturated air with a 5% CO2 atmosphere. Cells were passed at 80%–90% of confluency with 0.25% (w/v) trypsin and the cell culture media was changed every 2–3 days.
The compounds were tested on two breast cancer cell lines (MCF-7 and MDA-MB-231) and L929 fibroblasts, used as a reference for the safety evaluation according to ISO 10993-1:2009 “Biological evaluation of medical devices”. Cells were seeded on sterile 96-well plates at 50 000 cells per well (L929) and 20 000 cells per well (MCF-7 and MDA-MB-231) in supplemented DMEM medium (100 μL) for 24 h. The culture medium was removed and new media containing different concentrations of the compounds (0–1000 μM) was added to the wells (100 μL). Control cells were incubated under the same conditions in the absence of a compound. Cells were incubated for 24 and 72 h under the same conditions described above. Then, the medium was removed, and the cells were incubated with 3-(4,5-dimethylthiazol-2-yl)-2,5-diphenyltetrazolium bromide (MTT; 0.5 mg mL^−1) for 3 h. After this time, the medium was removed, and formazan crystals were solubilized with DMSO (100 μL per well). The absorbance in each well was read on a SynergyTM HT Multimode microplate reader (BioTek Instruments; Winooski, VT, USA) at 570 and 630 nm (for background correction), and the cell viability was calculated according to the following equation (eqn (1)):1 [drawing 3] where OD570(sample) and OD630(sample) are the optical densities of the solutions containing the compounds and OD570(control) and OD630(control) are controls without compound.
Each apoptosis value determination represents the mean ± standard deviation of 2 independent assays. The IC50 values were obtained using GraphPad Prism software and ANOVA (analysis of variance) was performed to determine the statistical difference between the IC50 values of different cell lines.

[2] = system: pBR322 DNA
Experimental: The interaction of 11Cl with plasmid DNA was also assessed by visualizing the relaxation of the plasmid using agarose gel electrophoresis (Fig. 4). Different concentrations of the 11Cl were incubated with pBR322 DNA at 37 °C for 24 h and then analyzed by gel electrophoresis (Fig. 4).
Assays were performed using 1.2% (w/v) agarose gels. A plasmid pBR322 DNA was purchased from Thermofisher Scientific® at 0.5 μg μL^−1 concentration in phosphate buffer 50 mM (pH 7.4). A 20 μL portion containing 0.125 μg μL^−1 of DNA in 10 mM Tris-HCl (pH 7.6) and 1 mM EDTA was incubated with increasing volumes of the stock solution of 11Cl (1 mM in DMSO) at ri values ranging from 0.05 to 0.5 (ri = [complex]/[no. nucleotide]). […] 20 μL of the sample was loaded in the agarose gel (1.2% w/v), and electrophoresis was carried out for a period of 100 min at 40 V in TAE 1× (Tris-acetate/EDTA) buffer. After electrophoresis, the gel was immersed in 200 mL of TAE 1× buffer containing 20 μL of a stock solution of SYBR safe for 30 min to stain the DNA. Then, the gel was washed with Mili Q water for 10 min and the stained gel was analyzed with a blue light in a Safe Imager™ 2.0 (Invitrogen).

[3] = Solubility in water (ICP-MS); conditions: 25 °C, limit of detection = 5 ppt
Experimental: sonication, the mixtures were stirred at 25 °C for 1 h. The saturated solutions were filtered
to remove any insoluble solids, dissolved in 0.5 mL of MilliQ water, and analyzed using
ICP-MS. Samples were submitted to acidic digestion with 2 mL of concentrated HNO3
(DigiPREP Jr. 15ml, 40 Pos, SCP Science). The digestion program was the following: 15
min to heat to 100°C and keep at 100°C for 60 min. After the digestion, the sample
volumes were precisely adjusted to 5 mL with MilliQ water. Samples were further diluted
30 times with 2% HNO3 solution and their Ru content was analyzed by ICP-MS using
standard mode on NexIon 350 D ICP-MS instrument (PerkinElmer). Yttrium was added
as an internal standard at a concentration of 2 ppb to all the solution and Ru quantitation
was performed using an external calibration curve with standards in the 0.05-50 ppb
range. All measurements were performed in triplicates.

Cc1ccccc1.[Cl-].[Cl][Ru+]([PH](c1ccccc1)(c1ccccc1)c1ccccc1)[PH](c1ccccc1)(c1ccccc1)c1ccccc1 [Compound 11Cl, [Ru(η^6-toluene)(PPh3)2Cl]Cl]
IC50 ([1]; 24 h exposure, read-out: IC50 (µM) (average ± standard deviation) 24 h MDA-MB-231): 5.5 ± 0.6 µM | IC50 ([1]; 72 h exposure, read-out: IC50 (μM) (average ± standard deviation) 72 h MDA-MB-231): 0.086 ± 0.006 µM | stabilization of the linear form of plasmid DNA ([2]; 37 °C, 24 h, ri 0.01–0.5): did not induce the stabilization of the linear form | precipitation of DNA ([2]; all studied concentrations): no precipitation was observed | ri ratio from which alterations in the supercoiled structure (tailing, slight retardation) appear ([2]; ri = [11Cl]/[DNA bp], 37 °C, 24 h): ≥ 0.2 | Solubility (μM) [3]: 528 ± 88 µM | Solubility (μg/mL) [3]: 416 ± 70 µg/mL
